Converted amounts (≈) assume the structure as drawn.
Legend:
[1] = test system: KB; test: Cytotoxicity against human KB cells at 10 ug/ml; type: functional
[2] = target: T1, DNA topoisomerase 1 (Homo sapiens) (UniProt P11387); test: Inhibition of DNA topoisomerase 1
T1 sequence (whole entry): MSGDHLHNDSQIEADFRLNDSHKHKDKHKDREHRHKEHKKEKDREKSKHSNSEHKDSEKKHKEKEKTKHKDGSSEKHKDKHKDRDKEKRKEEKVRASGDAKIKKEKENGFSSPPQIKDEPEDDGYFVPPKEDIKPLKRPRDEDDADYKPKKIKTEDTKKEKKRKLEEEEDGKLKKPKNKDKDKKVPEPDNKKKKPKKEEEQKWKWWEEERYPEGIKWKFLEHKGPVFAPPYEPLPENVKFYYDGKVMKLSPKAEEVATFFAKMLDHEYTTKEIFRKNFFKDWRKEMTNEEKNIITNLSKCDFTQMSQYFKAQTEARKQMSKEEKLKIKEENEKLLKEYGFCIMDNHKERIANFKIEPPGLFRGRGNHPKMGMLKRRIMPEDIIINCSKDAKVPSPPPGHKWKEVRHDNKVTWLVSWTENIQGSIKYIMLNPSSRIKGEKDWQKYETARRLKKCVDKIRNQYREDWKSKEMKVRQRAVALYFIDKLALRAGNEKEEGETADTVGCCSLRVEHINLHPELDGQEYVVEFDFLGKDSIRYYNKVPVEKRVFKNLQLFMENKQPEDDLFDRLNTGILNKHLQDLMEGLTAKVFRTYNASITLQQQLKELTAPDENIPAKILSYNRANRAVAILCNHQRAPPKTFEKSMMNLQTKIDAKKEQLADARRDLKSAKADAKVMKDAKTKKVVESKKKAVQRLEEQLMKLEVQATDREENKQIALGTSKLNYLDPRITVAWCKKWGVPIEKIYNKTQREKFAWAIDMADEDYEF

[3] = test system: L1210; test: Cytotoxicity against mouse L1210 cells at 10 ug/ml; type: functional
[4] = test system: KB; test: Cytotoxicity against human KB cells; type: functional, cell-based
[5] = test system: L1210; test: Cytotoxicity against mouse L1210 cells; type: functional, cell-based

Row | SMILES | MIC [2] [µg/mL] | Activity [1] [%] | Activity [3] [%] | IC50 [4] [µg/mL] | IC50 [5] [µg/mL]
1 | C[C@@]12CC[C@H](O)[C@@H]3COC(=C31)C(=O)c1cc3c(cc12)C(=O)CCC3O (some centres not stated) | 2.5 (≈ 7.34 µM) | 9.8 | 14.5 |  | 
2 | C[C@@]12CC[C@H](O)[C@@H]3COC(=C31)C(=O)c1cc3c(cc12)C(O)CCC3=O (some centres not stated) [XESTOSAPROL A] | 12.5 (≈ 36.7 µM) | 30.1 | 34.9 |  | 
3 | C[C@@]12CCC(=O)c3coc(c31)C(=O)c1cc3c(O)ccc(OS(=O)(=O)[O-])c3cc12.[Na+] [HALENAQUINOL SULFATE SODIUM] | > 50 | 12.2 | 22.4 |  | 

The next lines start with results.

Row | MIC [2] [µg/mL] | SMILES | Activity [1] [%] | Activity [3] [%] | IC50 [4] [µg/mL] | IC50 [5] [µg/mL]
4 | 2 (≈ 6.28 µM) | C[C@@]12CCCc3coc(c31)C(=O)c1cc3c(cc12)C(=O)C=CC3=O [XESTOQUINONE] |  |  | 1.7 (≈ 5.34 µM) | 0.17 (≈ 0.534 µM)
5 | 10 | C[C@@]12CCCc3coc(c31)C(=O)c1cc3c(O)ccc(OS(=O)(=O)[O-])c3cc12.[Na+] [XESTOQUINOL SULFATE SODIUM] |  | 25.4 |  | 
6 | 0.4 (≈ 1.2 µM) | C[C@@]12CCC(=O)c3coc(c31)C(=O)c1cc3c(cc12)C(=O)C=CC3=O [HELENAQUINONE] |  |  | 3.1 (≈ 9.33 µM) | 1.6 (≈ 4.81 µM)

Source: ChEMBL document CHEMBL1149726, “New Pentacyclic Compounds from the Okinawan Marine Sponge Xestospongia sapra” (J Nat Prod, 1992)
